{
  "source": "patent US10821092B2",
  "about": "“Viscous topical ocular formulations” (Encompass Development, Inc., priority 2014, dated 2020)",
  "key": {"[1]": {"details": "cited from earlier work"}, "rabbit eye": {"system": "rabbit eye", "assay": "Blink response to surface stimulation in rabbits: onset and duration of anesthesia", "format": "in vivo, New Zealand White Rabbits", "details": "as shown in the working examples", "protocol": "This rabbit study was performed in order to evaluate various formulations. General guidelines for these studies are attached here as Attachment 1. This guideline defines the screening of six (6) formulations using two (2) different viscosity enhancing agents. The two agents selected were Carboxymethylcellulose (CMC) and Sodium Hyluronate (HA). The specifics of these formulations are described in Attachment 2.\nA statistical analysis of the experimental results for both onset of action and the duration of anesthesia is provided below. The means were compiled and statistically compared to the controls in each individual formulation. The significance or non-significance is noted as (S=Significant P value <0.001, NS=Not Significant P Value >0.05). The duration results are summarized here in Table 1.\nSix different formulations were tested and the onset and duration of action was evaluated.\nThe commercially available Tetracaine hydrochloride 0.5% Ophthalmic Solution was used as the control.\nNew Zealand White Rabbits were obtained from Harlan Sprague Dawley. They were housed in the animal facility at Mercer\nDosing was performed with the experimental formulation in one eye by dropping the formulation into the rabbit eye with the aid of a dropper and the standard marketed product was administered in the contra lateral eye as a control. Multiple experiments were run with the same group of rabbits. […]"}},
  "data": [
    {"molecule": "CCCCNc1ccc(C(=O)OCCN(C)C)cc1", "note": "[tetracaine]", "values": [
      {"measurement": "onset of anesthesia", "setting": "[1]; background statement on tetracaine ophthalmic solution", "value": "≤ 30", "unit": "s"},
      {"measurement": "duration of anesthetic properties", "setting": "[1]; background statement, cataract surgery", "value": "15 to 20", "unit": "min"},
      {"measurement": "duration of anesthesia after administration to the eye", "setting": "rabbit eye", "value": "up to 55 minutes"}
    ]}
  ]
}
